Where two headings read alike, the source gives them in different places.
Columns and labels:
Format in all cases: cell-based
[1] = target: T1, human glucagon receptor (GCGR) (Homo sapiens, UniProt P47871); experiment: cAMP assay, human GCGR cells; conditions: cAMP assay
T1 construct: expressed in transfected cells
Outline: (§1)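 Peptide-stimulated cAMP measured by two-step HTRF after a 30 min room-temperature incubation with receptor-expressing cells (hGLP-1R, hGIPR at 1×10^5 cells/ml; hGCGR at 2×10^5 cells/ml). Duplicate dilutions; EC50 from 4-parameter logistic fit of % Delta F.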

GLP-1R (INS1e assay) = target: T2, GLP-1R (INS1e assay) (Rattus norvegicus, UniProt P32301); experiment: INS1e assay, cAMP activity at GLP-1R; conditions: mono-lipidated peptides
T2 construct: endogenous in cells; host or cells: INS-1E cells
T2 sequence (P32301 22-463): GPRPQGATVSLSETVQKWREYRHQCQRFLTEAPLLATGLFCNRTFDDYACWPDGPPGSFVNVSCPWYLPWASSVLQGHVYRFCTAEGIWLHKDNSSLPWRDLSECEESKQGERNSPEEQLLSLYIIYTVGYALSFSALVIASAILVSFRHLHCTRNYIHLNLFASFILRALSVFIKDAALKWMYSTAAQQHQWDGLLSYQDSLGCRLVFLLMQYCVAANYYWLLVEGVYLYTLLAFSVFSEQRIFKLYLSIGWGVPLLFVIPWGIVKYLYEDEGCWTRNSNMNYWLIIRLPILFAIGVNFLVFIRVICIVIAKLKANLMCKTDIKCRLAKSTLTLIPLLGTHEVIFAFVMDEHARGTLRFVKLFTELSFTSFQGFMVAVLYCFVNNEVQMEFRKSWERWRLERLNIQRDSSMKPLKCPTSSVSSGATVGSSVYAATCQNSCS
Outline: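 cAMP was quantified by two-step HTRF, using anti-cAMP cryptate donor and cAMP-d2 acceptor, each diluted 1/20 in conjugate and lysis buffer. EC50 values of the synthetic peptides were derived from the cAMP readout.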

[2] = target: T3, human GLP-1 receptor (GLP-1R) (Homo sapiens, UniProt P43220); experiment: cAMP assay, human GLP-1R cells
T3 construct: expressed in transfected cells
Outline: as §1

[3] = target: T4, human glucose-dependent insulinotropic peptide receptor (GIPR) (Homo sapiens, UniProt P48546); experiment: cAMP assay, human GIPR cells; conditions: cAMP assay
T4 construct: expressed in transfected cells
T4 sequence (P48546 22-466): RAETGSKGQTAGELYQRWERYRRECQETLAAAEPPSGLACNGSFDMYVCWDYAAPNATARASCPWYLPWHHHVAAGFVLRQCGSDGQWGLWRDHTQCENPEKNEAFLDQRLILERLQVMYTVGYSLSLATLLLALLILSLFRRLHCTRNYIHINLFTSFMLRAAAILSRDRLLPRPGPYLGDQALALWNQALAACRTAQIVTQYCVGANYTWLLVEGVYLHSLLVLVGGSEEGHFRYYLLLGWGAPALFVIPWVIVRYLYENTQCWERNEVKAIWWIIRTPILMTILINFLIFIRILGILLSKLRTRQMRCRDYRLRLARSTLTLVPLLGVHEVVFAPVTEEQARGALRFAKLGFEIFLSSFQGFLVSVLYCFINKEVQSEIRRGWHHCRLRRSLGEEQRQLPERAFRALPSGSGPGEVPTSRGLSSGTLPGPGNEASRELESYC
Outline: as §1

[4] = first determination (n1), read-out: Primary assay EC50 Gluc-R (n1)
[5] = second determination (n2), read-out: Primary assay EC50 Gluc-R (n2)
[6] = mean of n1 and n2, read-out: INS1e assay EC50 Mean pM GLP-1R
[7] = replicate n1, read-out: INS1e assay EC50 GLP-1R n1
[8] = replicate n2, read-out: INS1e assay EC50 GLP-1R n2
[9] = cAMP assay, first determination (n1), read-out: Primary assay EC50 GLP-1R n1
[10] = cAMP assay, second determination (n2), read-out: Primary assay EC50 GLP-1R n2
[11] = mean of n1 and n2, read-out: Mean pM GLP-1R
[12] = first determination (n1), read-out: Primary assay EC50 GIP-R (n1)
[13] = second determination (n2), read-out: Primary assay EC50 GIP-R (n2)

T3 sequence (P43220 24-463): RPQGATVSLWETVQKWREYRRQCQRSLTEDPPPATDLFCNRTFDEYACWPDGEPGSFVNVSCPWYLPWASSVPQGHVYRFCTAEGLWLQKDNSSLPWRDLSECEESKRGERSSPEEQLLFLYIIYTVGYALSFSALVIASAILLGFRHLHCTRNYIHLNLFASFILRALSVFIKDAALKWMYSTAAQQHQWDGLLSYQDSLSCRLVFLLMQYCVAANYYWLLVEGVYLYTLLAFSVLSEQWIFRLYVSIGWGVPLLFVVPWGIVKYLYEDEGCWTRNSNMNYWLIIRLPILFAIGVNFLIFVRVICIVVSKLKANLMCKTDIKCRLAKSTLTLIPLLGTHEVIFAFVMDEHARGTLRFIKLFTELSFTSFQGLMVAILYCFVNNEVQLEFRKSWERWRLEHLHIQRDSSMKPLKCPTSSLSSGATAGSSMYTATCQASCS
T1 sequence (P47871 26-477): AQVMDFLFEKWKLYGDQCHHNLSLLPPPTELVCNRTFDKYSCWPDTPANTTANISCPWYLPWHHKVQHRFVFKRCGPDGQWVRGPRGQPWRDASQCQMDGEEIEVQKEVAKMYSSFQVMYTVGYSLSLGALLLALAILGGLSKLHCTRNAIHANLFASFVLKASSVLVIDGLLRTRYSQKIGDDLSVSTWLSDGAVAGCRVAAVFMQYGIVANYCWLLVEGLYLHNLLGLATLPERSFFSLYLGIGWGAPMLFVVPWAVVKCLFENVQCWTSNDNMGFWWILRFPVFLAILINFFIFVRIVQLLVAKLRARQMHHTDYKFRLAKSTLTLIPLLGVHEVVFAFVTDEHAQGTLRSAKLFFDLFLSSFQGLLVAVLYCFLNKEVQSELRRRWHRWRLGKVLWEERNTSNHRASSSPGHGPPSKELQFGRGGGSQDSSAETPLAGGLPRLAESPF

Row | EC50 [1, 4] | EC50 [1, 5] | EC50 (GLP-1R (INS1e assay); [6]) | EC50 (GLP-1R (INS1e assay); [7]) | EC50 (GLP-1R (INS1e assay); [8]) | EC50 [2, 9] | EC50 [2, 10] | EC50 [2, 11] | EC50 [3, 12] | EC50 [3, 13] | Structure (SMILES) | EC50 ([1]; Primary assay EC50 Gluc-R (n1), first determination (n1)) | EC50 ([1]; read-out: Primary assay EC50 Gluc-R (n2), second determination (n2)) | EC50 ([3]; Primary assay EC50 GIP-R (n1), first determination (n1)) | EC50 ([3]; read-out: Primary assay EC50 GIP-R (n2), second determination (n2))
1 | ≥ 27000 pM | ≥ 27000 pM | 58 pM | 55 pM | 61.2 pM | 7.9 pM | 5 pM | 6.4 pM | ≥ 27000 pM | ≥ 27000 pM | CCCCCCCCCCCCCCCCCC(=O)NCCOCCOCC(=O)NCCOCCOCC(=O)NCCCC[C@H](NC(=O)[C@H](C)NC(=O)[C@H](C)NC(=O)[C@H](CCC(=O)O)NC(=O)CNC(=O)[C@H](CCC(=O)O)NC(=O)[C@H](CC(C)C)NC(=O)[C@](C)(Cc1ccccc1)NC(=O)[C@H](CO)NC(=O)[C@](C)(CO)NC(=O)[C@@H](NC(=O)[C@H](CC(=O)O)NC(=O)[C@H](CO)NC(=O)[C@@H](NC(=O)[C@](C)(Cc1ccccc1)NC(=O)[C@H](CO)NC(=O)CNC(=O)[C@H](CCC(=O)O)NC(=O)C(C)(C)NC(=O)[C@@H](N)Cc1c[nH]cn1)[C@@H](C)O)C(C)C)C(=O)N[C@@H](CCC(=O)O)C(=O)N[C@@](C)(Cc1ccccc1)C(=O)N[C@H](C(=O)N[C@@H](C)C(=O)N[C@@](C)(Cc1ccccc1)C(=O)N[C@H](C(=O)N[C@H](C(=O)N[C@@](C)(CCCCN)C(=O)NCC(=O)NCC(N)=O)C(C)C)C(C)C)[C@@H](C)CC [compound 153] | – | – | – | –
2 | ≥ 28000 pM | ≥ 28000 pM | 123 pM | 168 pM | 77.6 pM | 7 pM | 4.9 pM | 6 pM | ≥ 28000 pM | ≥ 28000 pM | CCCCCCCCCCCC(=O)NCCOCCOCC(=O)NCCCC[C@H](NC(=O)[C@H](C)NC(=O)[C@H](C)NC(=O)[C@H](CCC(=O)O)NC(=O)CNC(=O)[C@H](CCC(=O)O)NC(=O)[C@H](CC(C)C)NC(=O)[C@](C)(Cc1ccccc1)NC(=O)[C@H](CO)NC(=O)[C@](C)(CO)NC(=O)[C@@H](NC(=O)[C@H](CC(=O)O)NC(=O)[C@H](CO)NC(=O)[C@@H](NC(=O)[C@](C)(Cc1ccccc1)NC(=O)[C@H](CO)NC(=O)CNC(=O)[C@H](CCC(=O)O)NC(=O)C(C)(C)NC(=O)[C@@H](N)Cc1c[nH]cn1)[C@@H](C)O)C(C)C)C(=O)N[C@@H](CCC(=O)O)C(=O)N[C@@](C)(Cc1ccccc1)C(=O)N[C@H](C(=O)N[C@@H](C)C(=O)N[C@@](C)(Cc1ccccc1)C(=O)N[C@H](C(=O)N[C@H](C(=O)N[C@@](C)(CCCCN)C(=O)NCC(=O)NCC(N)=O)C(C)C)C(C)C)[C@@H](C)CC [compound 134] | – | – | – | –

Row | Structure (SMILES) | EC50 [1, 4] | EC50 [1, 5] | EC50 (GLP-1R (INS1e assay); [6]) | EC50 (GLP-1R (INS1e assay); [7]) | EC50 (GLP-1R (INS1e assay); [8]) | EC50 [2, 9] | EC50 [2, 10] | EC50 [2, 11] | EC50 [3, 12] | EC50 [3, 13] | EC50 ([1]; Primary assay EC50 Gluc-R (n1), first determination (n1)) | EC50 ([1]; read-out: Primary assay EC50 Gluc-R (n2), second determination (n2)) | EC50 ([3]; Primary assay EC50 GIP-R (n1), first determination (n1)) | EC50 ([3]; read-out: Primary assay EC50 GIP-R (n2), second determination (n2))
3 | CC[C@H](C)[C@H](NC(=O)[C@](C)(Cc1ccccc1)NC(=O)[C@H](CCC(=O)O)NC(=O)[C@H](CCCCNC(=O)CC[C@H](NC(=O)CCCCCCCCCCCOc1ccc(C(=O)O)cc1)C(=O)O)NC(=O)[C@H](C)NC(=O)[C@H](C)NC(=O)[C@H](CCC(=O)O)NC(=O)CNC(=O)[C@H](CCC(=O)O)NC(=O)[C@H](CC(C)C)NC(=O)[C@](C)(Cc1ccccc1)NC(=O)[C@H](CO)NC(=O)[C@](C)(CO)NC(=O)[C@@H](NC(=O)[C@H](CC(=O)O)NC(=O)[C@H](CO)NC(=O)[C@@H](NC(=O)[C@](C)(Cc1ccccc1)NC(=O)[C@H](CO)NC(=O)CNC(=O)[C@H](CCC(=O)O)NC(=O)C(C)(C)NC(=O)[C@@H](N)Cc1c[nH]cn1)[C@@H](C)O)C(C)C)C(=O)N[C@@H](C)C(=O)N[C@@](C)(Cc1ccccc1)C(=O)N[C@H](C(=O)N[C@H](C(=O)N[C@@](C)(CCCCN)C(=O)NCC(=O)NCC(N)=O)C(C)C)C(C)C [compound 137] | – | – | 50 pM | 63.7 pM | 36.2 pM | 6.6 pM | 3.8 pM | 5.2 pM | – | – | ≥ 27000 pM | ≥ 27000 pM | ≥ 27000 pM | ≥ 27000 pM

Source: US10414811B2, “Protease-resistant lipidated GLP-1 analogs” (MEDIMMUNE LIMITED, priority 2015, dated 2019)
